Data reported in patent publication US20090062388A1, “Use of acetyl L-carnitine for the preparation of a medication for the preventive therapy for pain” (Sigma-Tau Industrie Farmaceutiche Riunite S.p.A., priority 2001, published 2009).
Where two headings read alike, the source gives them in different places.

How the values were obtained:
Male Swiss Webster mice [1] = test: Hyperalgesia induced by NMDA (hot plate); format: in vivo
Procedure: This test was carried out in compliance with what described in the rats by Davies and Inturrisi in J. Pharmacol. Exp. Ther., 289: 1048-1053, 1999, but was applied to the mice by us.
According to this test, the hyperalgesia, assessed through the hot plate test, is to be induced by intrathecal administration of an NMDA solution (1.64 μg/mouse; administered around 15 minutes after the last administration of acetyl L-carnitine).
The reduction in the pain threshold, which reaches its peak 15 minutes after the injection of NMDA, disappears within 30 minutes from the administration.

Male Swiss Webster mice [2] = test: Abdominal constriction test (acetic acid IP); format: in vivo; conditions: for Number of constrictions (0.3% acetic acid) / Number of constrictions (0.6% acetic acid): 3 mg/ml in drinking water
Procedure: The second experiment was the abdominal constriction test.
The abdominal constriction test was carried out according to Koster et al. in Fed. Proc. 18: 412, 1959.
According to this test, an IP injection of 0.6% acetic acid solution is to be made 5 minutes before starting the observation, which lasted 10 minutes.
In some experiments, the percentage of acetic acid was reduced by half (0.3%).

Male Swiss Webster mice [3] = test: Sleep induction test with pentobarbital; format: in vivo
Procedure: In the sleep induction test with pentobarbital, the duration of the loss of the […] reflex was measured in the mice treated with pentobarbital (60 mg/kg IP).

Male Swiss Webster mice [4] = test: Kainic acid-induced hyperalgesia (hot plate); format: in vivo
Procedure: According to this test, the hyperalgesia—determined in the mice through the hot plate test—is induced by a solution of kainic acid (20 mg/kg, IP).

[5] = tested on: M1 muscarinic receptor sub-type; test: Hot plate: acetyl L-carnitine analgesia after anti-M1 antisense oligonucleotide ICV; format: in vivo, mice; conditions: Acetyl L-carnitine 100 mg/kg BID SC 7 days
From the text: The observation that the analgesia induced by the acetyl L-carnitine is mediated by the M1 muscarinic receptor sub-type is confirmed by the application of the anti-sense strategy.

mice = format: in vivo; conditions: Acetyl L-carnitine 100 mg/kg BID SC 7 days
Procedure: The analgesia induced by the acetyl L-carnitine (100 mg/kg BID, SC for 7 days) was determined in presence of some antagonists of some neurotransmission systems deeply involved in the regulation of pain threshold, and in particular the naloxone (opioid antagonist), the CGP-35348 (GABAB antagonist) and the alpha-methyl-p-tyrosine (inhibitor of the synthesis of cathecolamines).
In agreement with the standard procedures known by the person skilled in the art, the doses used for any antagonist were the minimum required to prevent the analgesia induced by morphine (7 mg/kg SC) (1, 100 e 200 mg/kg IP), baclofen (4 mg/kg SC) and amphetamine (1 mg/kg SC) (non-reported data) respectively.

Male Swiss Webster mice [6] = test: Rota-rod test (motor coordination); format: in vivo
Procedure: The rota rod test was carried out by means of an apparatus consisting of a platform and a 3 cm-diameter rotating rod (16-20 r.p.m.) with a non-slipping surface.
The integrity of the animals' motor coordination was determined according to the capacity of the mice to keep their balance on the rotating rod.
At various intervals after the treatment, the parameter considered was the number of falls of the animal within a 30 second-observation (Vaught et al., Neuropharmacol., 24: 211, 1985).

[7] = pentobarbital 60 mg/kg IP, Acetyl L-carnitine 100 mg/kg BID SC 7 days, Piracetam 30 mg/kg IP

CC(=O)O[C@H](CC(=O)[O-])C[N+](C)(C)C [Acetyl L-carnitine, acetyl L-carnitine]
effect on reduction in pain threshold induced by NMDA (Male Swiss Webster mice [1]; 30 mg/kg BID, IP or SC for 7 days (FIG. 7)): not found to be active
effect on reduction in pain threshold induced by NMDA (Male Swiss Webster mice [1]; 100 mg/kg BID, SC or IP for 7 days, NMDA 1.64 μg/mouse intrathecal (FIG. 7)): anti-nociceptive effect
Number of constrictions (0.3% acetic acid) (Male Swiss Webster mice [2]; sub-chronic treatment 7 days): 12.7 ± 3.5
Number of constrictions (0.6% acetic acid) (Male Swiss Webster mice [2]; sub-chronic treatment 7 days): 31.5 ± 4.0
Number of constrictions (0.3% acetic acid) (Male Swiss Webster mice [2]; sub-chronic treatment 14 days): 11.9 ± 2.2
Number of constrictions (0.6% acetic acid) (Male Swiss Webster mice [2]; sub-chronic treatment 14 days): 28.3 ± 5.1
antinociceptive effect, abdominal constriction test (Male Swiss Webster mice [2]; 0.6% acetic acid, 30 mg/kg IP (or SC), 18-day treatment (FIG. 3)): had no effect
antinociceptive effect, abdominal constriction test (Male Swiss Webster mice [2]; 0.6% acetic acid, 100 mg/kg BID, SC or IP, 14 days of treatment (FIG. 1)): exerted an antinociceptive effect
antinociceptive effect, abdominal constriction test (Male Swiss Webster mice [2]; 0.6% acetic acid, 100 mg/kg acute administration (SC or IP) or repeated for 7 days (FIG. 1)): had no effect at all
antinociceptive effect, abdominal constriction test (Male Swiss Webster mice [2]; small concentration of acid, 30 mg/kg, 14 days (FIG. 4)): the statistic significance was obtained after 14 days
pain threshold in abdominal constriction test (0.3 and 0.6%) (Male Swiss Webster mice [2]; solution 3 mg/ml in bottle for 7 and 14 days): no increase in the pain threshold was observed
effect on pentobarbital sleep duration and induction times (Male Swiss Webster mice [3]; 100 mg/kg BID SC for 7 days, pentobarbital 60 mg/kg IP 24 hours after end of treatments): neither affected the duration of sleep nor the induction times
SLEEP Duration (Male Swiss Webster mice [3]; [7]): 23.5 ± 3.4 min
SLEEP Induction time (Male Swiss Webster mice [3]; [7]): 3.3 ± 2.1 min
reversal of kainic acid-induced hyperalgesia (Male Swiss Webster mice [4]; 7-day repeated administration started 48 hours after kainic acid 20 mg/kg IP (FIG. 6)): capable to revert the hyperalgesia
reversal of kainic acid-induced hyperalgesia (Male Swiss Webster mice [4]; single administration (FIG. 6bis)): no anti-hyperalgesic effect
Hot plate Licking latency ([5]; pre-treat. AODN 3 nmol ICV, 24 hours after last injection, before treatment): 13.5 ± 0.8 s
Hot plate Licking latency ([5]; pre-treat. AODN 3 nmol ICV, after treatment 15 min): 16.6 ± 1.9 s
Hot plate Licking latency ([5]; pre-treat. AODN 3 nmol ICV, after treatment 30 min): 15.8 ± 1.8 s
Hot plate Licking latency ([5]; pre-treat. AODN 3 nmol ICV, after treatment 45 min): 15.8 ± 1.5 s
Hot plate Licking latency ([5]; pre-treat. dODN 3 nmol ICV, 24 hours after last injection, before treatment): 23.6 ± 1.1 s
Hot plate Licking latency ([5]; pre-treat. dODN 3 nmol ICV, after treatment 15 min): 22.6 ± 2.3 s
Hot plate Licking latency ([5]; pre-treat. dODN 3 nmol ICV, after treatment 30 min): 21.9 ± 1.5 s
Hot plate Licking latency ([5]; pre-treat. dODN 3 nmol ICV, after treatment 45 min): 22.3 ± 1.7 s
Hot plate Licking latency (mice; pre-treat. Alpha-M-p-T 200 mg/kg, after treatment 15 min): 22.5 ± 2.0 s
Hot plate Licking latency (mice; pre-treat. Alpha-M-p-T 200 mg/kg, after treatment 30 min): 21.5 ± 1.7 s
Hot plate Licking latency (mice; pre-treat. Alpha-M-p-T 200 mg/kg, after treatment 45 min): 21.6 ± 1.5^ sec
Hot plate Licking latency (mice; pre-treat. Alpha-M-p-T 200 mg/kg, before treatment): 22.0 ± 1.3 s
Hot plate Licking latency (mice; pre-treat. Atropine 5 mg/kg, after treatment 15 min): 11.4 ± 1.7° sec
Hot plate Licking latency (mice; pre-treat. Atropine 5 mg/kg, after treatment 30 min): 12.6 ± 1.9° sec
Hot plate Licking latency (mice; pre-treat. Atropine 5 mg/kg, after treatment 45 min): 12.8 ± 1.3° sec
Hot plate Licking latency (mice; pre-treat. Atropine 5 mg/kg, before treatment): 21.2 ± 1.0^ sec
Hot plate Licking latency (mice; pre-treat. CGP 35348 100 mg/kg, after treatment 15 min): 21.1 ± 1.2^ sec
Hot plate Licking latency (mice; pre-treat. CGP 35348 100 mg/kg, after treatment 30 min): 21.0 ± 2.1^ sec
Hot plate Licking latency (mice; pre-treat. CGP 35348 100 mg/kg, after treatment 45 min): 20.3 ± 1.9^ sec
Hot plate Licking latency (mice; pre-treat. CGP 35348 100 mg/kg, before treatment): 22.1 ± 0.7 s
Hot plate Licking latency (mice; pre-treat. HC-3 1 μg ICV, after treatment 15 min): 14.6 ± 1.3° sec
Hot plate Licking latency (mice; pre-treat. HC-3 1 μg ICV, after treatment 30 min): 14.0 ± 1.8° sec
Hot plate Licking latency (mice; pre-treat. HC-3 1 μg ICV, after treatment 45 min): 15.5 ± 1.9° sec
Hot plate Licking latency (mice; pre-treat. HC-3 1 μg ICV, before treatment): 22.0 ± 1.1^ sec
Hot plate Licking latency (mice; pre-treat. Naloxone 1 mg/kg, after treatment 15 min): 22.3 ± 1.9 s
Hot plate Licking latency (mice; pre-treat. Naloxone 1 mg/kg, after treatment 30 min): 22.1 ± 2.0 s
Hot plate Licking latency (mice; pre-treat. Naloxone 1 mg/kg, after treatment 45 min): 20.6 ± 1.2^ sec
Hot plate Licking latency (mice; pre-treat. Naloxone 1 mg/kg, before treatment): 22.6 ± 0.6 s
Hot plate Licking latency (mice; pre-treat. Pirenzepine 0.1 μg ICV, after treatment 15 min): 16.5 ± 1.8° sec
Hot plate Licking latency (mice; pre-treat. Pirenzepine 0.1 μg ICV, after treatment 30 min): 14.3 ± 2.0° sec
Hot plate Licking latency (mice; pre-treat. Pirenzepine 0.1 μg ICV, after treatment 45 min): 17.1 ± 1.6° sec
Hot plate Licking latency (mice; pre-treat. Pirenzepine 0.1 μg ICV, before treatment): 21.6 ± 1.3^ sec
Hot plate Licking latency (mice; pre-treat. S-(−)-ET-126 0.1 μg ICV, after treatment 15 min): 15.8 ± 2.2° sec
Hot plate Licking latency (mice; pre-treat. S-(−)-ET-126 0.1 μg ICV, after treatment 30 min): 16.9 ± 2.3° sec
Hot plate Licking latency (mice; pre-treat. S-(−)-ET-126 0.1 μg ICV, after treatment 45 min): 15.8 ± 1.8° sec
Hot plate Licking latency (mice; pre-treat. S-(−)-ET-126 0.1 μg ICV, before treatment): 22.9 ± 1.3^ sec
Hot plate Licking latency (mice; pre-treat. physiological solution 10 ml/kg, after treatment 15 min): 22.6 ± 1.3 s
Hot plate Licking latency (mice; pre-treat. physiological solution 10 ml/kg, after treatment 30 min): 22.5 ± 1.3 s
Hot plate Licking latency (mice; pre-treat. physiological solution 10 ml/kg, after treatment 45 min): 22.9 ± 1.6^ sec
Hot plate Licking latency (mice; pre-treat. physiological solution 10 ml/kg, before treatment): 21.8 ± 1.1 s
Motor coordination (rota-rod) (Male Swiss Webster mice [6]; 100 mg/kg BID, SC or IP for 7 and 14 days): not different from motor coordination of the control mice
ROTA-ROD No. of falls in 30 seconds (Male Swiss Webster mice [6]; 7-day sub-chronic treatment IP 100 mg/kg BID, 15 min after treatment): 2.2 ± 0.4
ROTA-ROD No. of falls in 30 seconds (Male Swiss Webster mice [6]; 7-day sub-chronic treatment IP 100 mg/kg BID, 30 min after treatment): 1.5 ± 0.3
ROTA-ROD No. of falls in 30 seconds (Male Swiss Webster mice [6]; 7-day sub-chronic treatment IP 100 mg/kg BID, 45 min after treatment): 1.1 ± 0.3
ROTA-ROD No. of falls in 30 seconds (Male Swiss Webster mice [6]; 7-day sub-chronic treatment IP 100 mg/kg BID, before treatment): 3.6 ± 0.5
ROTA-ROD No. of falls in 30 seconds (Male Swiss Webster mice [6]; 14-day sub-chronic treatment IP 100 mg/kg BID, 15 min after treatment): 2.9 ± 0.3
ROTA-ROD No. of falls in 30 seconds (Male Swiss Webster mice [6]; 14-day sub-chronic treatment IP 100 mg/kg BID, 30 min after treatment): 1.7 ± 0.4
ROTA-ROD No. of falls in 30 seconds (Male Swiss Webster mice [6]; 14-day sub-chronic treatment IP 100 mg/kg BID, 45 min after treatment): 1.0 ± 0.3
ROTA-ROD No. of falls in 30 seconds (Male Swiss Webster mice [6]; 14-day sub-chronic treatment IP 100 mg/kg BID, before treatment): 3.9 ± 0.5
